Paper PMC12278462, “Site-selective arylations of nature-inspired flavonoids or steroidal phenols via C—H or O—H activation” (Journal of Enzyme Inhibition and Medicinal Chemistry, 2025)

Tests used:
MCF-7 = assay: MTT antiproliferative assay, MCF-7; format: cell-based, human; conditions: Homo sapiens; for inhibition at 10 µM: MCF7, 10 µM; for inhibition at 10 µM / inhibition at 30 µM: 72 h; for inhibition at 30 µM: MCF7, 30 µM; for IC50: MCF7, 72 h, read-out: calculated IC50 MCF-7
Protocol: (§1) We evaluated the cytotoxic activity of the newly synthesised arylated compounds 13–17 by the MTT assay[37] on a panel of human adherent cancer cell lines. The panel included breast (MCF-7 and MDA MB-231) and cervical (HeLa, SiHa and C33A) cancer cell lines differing in receptorial or HPV status. Tumour selectivity was determined on the NIH/3T3 mouse fibroblast cell line.
(§2) Briefly, the panels of breast and cervical cancerous cell lines, differing by their receptorial and HPV status were used, precisely MCF-7 (ER, PR and HER2 positive) and MDA-MB-231 (TNBC) breast carcinoma and HeLa (HPV18+), SiHa (HPV16+), C33A (HPV-) cervical carcinoma cells. Non-cancerous NIH/3T3 mouse fibroblast cell line was used for selectivity study. MCF-7, MDA-MB-231, Hela and NIH/3T3 cell lines were purchased from ECACC (European Collection of Cell Cultures, Salisbury, UK), while SiHa and C33A from ATCC (American Tissue Culture Collection, LGC Standards GmbH, Wesel, Germany). Cells were maintained in Eagle's Minimum Essential Medium (EMEM, Capricorn Scientific GmbH, Ebsdorfergrund, Germany) supplemented with 10% heat-inactivated fetal bovine serum (FBS), 1% non-essential amino acids (NEAA), and 1% antibiotic-antimycotic mixture (penicillin–streptomycin). The cells were maintained at 37 °C in a humidified atmosphere containing 5% CO2.
(§3) For measurements cells were seeded for 96-well plates at a density of 5 000/well, except for C33A, which was seeded in 10 000cells for each well. After overnight standing cells were treated with 10 and 30 µM solutions for screening and increasing concentrations (0.1-30.0 µM) of the test compounds were used for concentration-response curves. After incubation for 72 hours under cell culturing condition 5 mg/ml MTT (3-(4,5-[…])-2,5-diphenyl-2H-tetrazolium bromide) solution was added for another 4 h. The precipitated formazan crystals were solubilized in DMSO and the absorbance was measured at 545 nm with a microplate reader (BMG Labtech, Ortenberg, Germany). Wells with untreated cells were utilized as control, and inhibition % were calculated by GraphPad Prism v 9.0 software (GraphPad Software, San Diego, CA, USA). If the growth-inhibition exceeded 70% at 30 µM concentration during the screening concentration-response curves were fitted and IC50 values were calculated by GraphPad Prism v 9.0. The experiments were performed with five parallel wells for each experimental condition and repeated at least twice.

MDA-MB-231 = assay: MTT antiproliferative assay, MDA-MB-231; format: cell-based, human; conditions: Homo sapiens; for inhibition at 10 µM: MDA-MB-231, 10 µM; for inhibition at 10 µM / inhibition at 30 µM: 72 h; for inhibition at 30 µM: MDA-MB-231, 30 µM; for IC50: MDA-MB-231, 72 h, read-out: calculated IC50 MDA-MB-231
Protocol: as §1, §2, §3

HeLa = assay: MTT antiproliferative assay, HeLa; format: cell-based, human; conditions: Homo sapiens, HeLa, 72 h; for IC50: read-out: calculated IC50 HeLa
Protocol: as §1, §2, §3

SiHa = assay: MTT antiproliferative assay, SiHa; format: cell-based, human; conditions: Homo sapiens, SiHa, 72 h; for IC50: read-out: calculated IC50 SiHa
Protocol: as §1, §2, §3

C33A = assay: MTT antiproliferative assay, C33A; format: cell-based, human; conditions: Homo sapiens, C-33-A, 72 h; for IC50: read-out: calculated IC50 C33A
Protocol: as §1, §2, §3

[1] = system: NIH/3T3 mouse fibroblast cell line; assay: MTT assay, tumour selectivity on non-cancerous fibroblasts; format: cell-based; conditions: Mus musculus; for inhibition at 10 µM: NIH3T3, 10 µM; for inhibition at 10 µM / inhibition at 30 µM: 72 h; for inhibition at 30 µM: NIH3T3, 30 µM; for IC50: NIH3T3, 72 h, read-out: calculated IC50 NIH/3T3
Protocol: as §1, §2, §3

17β-HSD1 = target: T1, 17β-HSD1 (Homo sapiens, UniProt P14061); assay: 17β-HSD1 enzymatic assay (E1 to E2, LC-MS/MS); format: biochemical; conditions: for inhibition at 10 µM / inhibition at 100 µM: read-out: 17β-HSD1 Inhibition (% ± SD)
T1 sequence (P14061 1-328): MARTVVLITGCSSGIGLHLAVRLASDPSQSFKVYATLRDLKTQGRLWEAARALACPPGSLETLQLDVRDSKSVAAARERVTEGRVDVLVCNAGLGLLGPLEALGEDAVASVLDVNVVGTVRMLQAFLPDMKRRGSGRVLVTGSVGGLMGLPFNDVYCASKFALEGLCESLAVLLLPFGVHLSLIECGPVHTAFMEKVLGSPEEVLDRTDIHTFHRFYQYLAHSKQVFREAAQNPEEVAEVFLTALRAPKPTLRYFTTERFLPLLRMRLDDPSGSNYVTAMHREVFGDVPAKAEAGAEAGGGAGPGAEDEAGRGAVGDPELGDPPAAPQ
Protocol: The bacterial homogenate of E. coli overexpressing HSD17B1 was previously prepared as described in references ^S2,S3, and stored in aliquots at -80 °C. Before conducting experiments, aliquots were quickly thawed and diluted twice with 100 mM sodium phosphate buffer (pH 6.5; #14457, #1411007, Kemika), then kept on ice. The enzymatic assay was performed as described in ^S3. Briefly, a 1 mL enzymatic reaction mixture was prepared in 2 mL microcentrifuge tubes with the following components: 10 µL of the test inhibitor dissolved in dimethyl sulfoxide (DMSO; #276855, Sigma Aldrich) or 10 µL of DMSO for control samples, 5 µL of 14 µM substrate estrone (E1; CAS 53-16-7; #E2300-000, Steraloids), 10 µL of 10 mM NADPH (#AE14, Carl Roth) prepared in 100 mM sodium phosphate buffer, and 965 µL of 100 mM sodium phosphate buffer (pH 6.5). The reaction mixture was mixed thoroughly before adding 10 µL of bacterial homogenate. Immediately after addition, the tubes were transferred to an Eppendorf thermoshaker (#5382000031, Eppendorf) and incubated at 37 °C for 10 minutes. To stop the reaction, 60 µL of 1.26 M ascorbic acid (#A92902, Sigma Aldrich) in methanol (#34966, Honeywell/Riedel-de Haen) /acetic acid (#1.00063, Merck) (99:1, v/v) was added. The samples were then immediately processed using solid-phase extraction (SPE). The assay was repeated in three independent experiments, with each experiment performed in technical duplicate.
The preparation of samples for liquid chromatography-tandem mass spectrometry (LC-MS/MS) involved SPE. Stock solutions of E1 and 17β-estradiol (E2; CAS: 50-28-2; #142406, Steraloids) were prepared gravimetrically and dissolved in methanol (#34966, Honeywell/Riedel-de Haen). A working calibrator solution containing both steroids was then prepared by mixing appropriate volumes of the stock solutions in methanol to achieve a final concentration of 1 µg/mL for each steroid. Eight-point calibration curves (excluding zero and blank) were prepared in 100 mM sodium phosphate buffer (pH 6.5). For each 1 mL reaction mixture or calibrator, 10 µL of 100 ng/mL internal standard solution containing [2,3,4-13C3]-17β-estradiol (#719552, Sigma Aldrich) was added. Samples were mixed thoroughly and incubated at room temperature for 15 minutes.
SPE was performed using Strata X 33 µm polymeric reversed-phase columns (30 mg/mL tubes; #8B-S100-TAK, Phenomenex). The procedure involved the following steps: column conditioning with 1 mL of methanol, column equilibration with 1 mL of H₂O (#1.15333, Supelco), sample loading (1 mL sample or calibrator), column washing with 1 mL of H₂O, column drying under high vacuum for 10 minutes, and finally elution with 1 mL of methanol directly into HPLC glass vials (#702713, Macherey-Nagel GmbH/Co). The eluted samples were stored at -20 °C until LC-MS/MS analysis.

[2] = system: human adherent cancer cell lines (HeLa, SiHa, C33A, MCF-7 and MDA-MB-231); assay: MTT assay, whole panel of cell lines; format: cell-based; conditions: Homo sapiens; MTT, 72 h; range across cell lines; read-out: IC50 range over the investigated cell lines
Protocol: as §1, §2, §3

cancer cell lines = conditions: cited from earlier work

SMILES | inhibition at 10 µM (MCF-7) | inhibition at 30 µM (MCF-7) | IC50 (MCF-7) | inhibition at 10 µM (MDA-MB-231) | inhibition at 30 µM (MDA-MB-231) | IC50 (MDA-MB-231) | inhibition at 10 µM (HeLa) | inhibition at 30 µM (HeLa) | IC50 (HeLa) | inhibition at 10 µM (SiHa) | inhibition at 30 µM (SiHa) | IC50 (SiHa) | inhibition at 10 µM (C33A) | inhibition at 30 µM (C33A) | IC50 (C33A) | inhibition at 10 µM [1] | inhibition at 30 µM [1] | IC50 [1] | IC50 [2] | inhibition at 100 µM (17β-HSD1; 100 µM test concentration) | further results
CN(C)C(=O)Oc1cc2c(c(-c3ccc(C(C)(C)C)cc3)c1)[C@H]1CC[C@@]3(C)C(=O)CC[C@H]3[C@@H]1CC2 [13c, 3-(N,N-dimethylcarbamoyloxy)-1-(4-tert-butylphenyl)-13α-estra-1,3,5(10)-triene-17-one] | 58.4% | 102% | 5.7 µM | 43.8% | 92.9% | 9.09 µM | 53.8% | 98.6% | 7.9 µM | 54.8% | 101% | 4.74 µM | 41.1% | 93.6% | 10.1 µM | 47.3% | 97.7% | 8.75 µM | 4.74 to 10.1 µM |  | 17β-HSD1 Inhibition (% ± SD) (17β-HSD1; 10 µM test concentration): No inhibition; 17β-HSD1 Inhibition (% ± SD) (17β-HSD1; 100 µM test concentration): No inhibition
C[C@@]12CC[C@@H]3c4c(cc(O)cc4-c4ccccc4)CC[C@H]3[C@@H]1CCC2=O [14a, 3-hydroxy-1-phenyl-13α-estra-1,3,5(10)-triene-17-one] | 13.1% | 15.4% |  | < 10% | < 10% |  | 16.1% | 43% |  | < 10% | < 10% |  | < 10% | 12.7% |  | 13.5% | 22.5% |  |  | 73.3 ± 7.5% | inhibition at 10 µM (17β-HSD1; 10 µM test concentration): 36.1 ± 10.2%
C[C@@]12CC[C@@H]3c4c(cc(O)cc4-c4ccc(Br)cc4)CC[C@H]3[C@@H]1CCC2=O [14b, 1-(4-bromophenyl)-3-hydroxy-13α-estra-1,3,5(10)-triene-17-one] | 35.1% | 81.5% | 13.5 µM | < 10% | 46.8% |  | 26.5% | 71.6% | 17.5 µM | < 10% | 59.7% |  | 28.7% | 57% |  | 16.1% | 41.7% |  |  | 76.6 ± 5.1% | inhibition at 10 µM (17β-HSD1; 10 µM test concentration): 35.9 ± 8%
CC(C)(C)c1ccc(-c2cc(O)cc3c2[C@H]2CC[C@@]4(C)C(=O)CC[C@H]4[C@@H]2CC3)cc1 [14c, 3-hydroxy-1-(4-tert-butylphenyl)-13α-estra-1,3,5(10)-triene-17-one] | 35.4% | 101% | 10.6 µM | < 10% | 91.3% | 20.5 µM | 21.9% | 98.3% | 13 µM | 20.2% | 99.6% | 12.5 µM | 25.4% | 89.8% | 14.4 µM | 16.1% | 98.3% | 13.7 µM | 10.6 to 20.5 µM | 77.6 ± 6.3% | IC50 (17β-HSD1; read-out: 17β-HSD1 calculated IC50 (95% CI)): 2.7 µM
C[C@@]12CC[C@@H]3c4ccc(OCc5cn(Cc6ccccc6)nn5)cc4CC[C@H]3[C@@H]1CCC2=O [compound 5] |  |  |  |  |  |  |  |  |  |  |  |  |  |  |  |  |  |  |  |  | IC50 (cancer cell lines): 0.6 to 0.9 µM; IC50 (cytotoxic) (cancer cell lines): submicromolar
